Reference: paper PMC5814316 (Experimental Animals, 2017)

Assays:
[1] = Stability of DECP, CP and KTZ in rat plasma under storage conditions; type: physicochemical; details: for Short term stability, Measured / Short term stability, RE: 25 °C for 3 h; for stability throughout the whole manipulation and storage processes: short term, long term, freeze-thaw; for Long term stability, Measured / Long term stability, RE: −80 °C for 3 months; for Three freeze−thaw cycles, Measured / Three freeze−thaw cycles, RE: −80°C to 25°C
[2] = test system: CYP2C9; details: C-4 oxidation of CP; cited from earlier work
[3] = test system: CYP3A4; details: cited from earlier work
[4] = test system: CYP2B6; details: C-4 oxidation of CP; cited from earlier work
[5] = target: T1, CYP3A4 (Homo sapiens, UniProt P08684); assay: in vitro; details: human liver microsomes
T1 sequence (P08684 whole entry): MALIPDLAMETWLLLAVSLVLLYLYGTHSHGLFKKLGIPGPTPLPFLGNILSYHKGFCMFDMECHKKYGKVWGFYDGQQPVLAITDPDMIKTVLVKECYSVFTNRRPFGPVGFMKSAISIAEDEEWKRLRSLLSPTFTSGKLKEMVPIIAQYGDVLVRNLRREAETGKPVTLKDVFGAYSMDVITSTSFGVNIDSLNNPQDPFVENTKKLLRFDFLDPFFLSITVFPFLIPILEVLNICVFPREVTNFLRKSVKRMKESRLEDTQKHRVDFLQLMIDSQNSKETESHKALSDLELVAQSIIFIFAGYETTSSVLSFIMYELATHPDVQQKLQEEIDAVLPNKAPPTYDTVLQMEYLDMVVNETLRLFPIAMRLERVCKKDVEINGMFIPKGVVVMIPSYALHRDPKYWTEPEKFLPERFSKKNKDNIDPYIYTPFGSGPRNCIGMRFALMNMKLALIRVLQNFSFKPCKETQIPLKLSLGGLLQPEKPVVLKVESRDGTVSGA

[6] = Pharmacokinetic study in rats: CP and DECP with and without KTZ, KTZ alone; type: in vivo; details: rat, plasma; for AUC(0-inf): AUC0→∞; for MRT inf: MRT0–∞
[7] = test system: CYP3A4; details: C-4 oxidation of CP; cited from earlier work
[8] = target: T1, CYP3A4; assay: KTZ inhibition of CP conversion to DECP in HLM; details: human liver microsomes, probe CP (cyclophosphamide)
[9] = test system: rats; assay: Toxicity observation in rats after single dose KTZ; type: in vivo, rat
[10] = suffering and junctival irritation of the operator; cited from earlier work
[11] = iv, 10 mg/kg, Group 1 (0 mg/kg KTZ), CP 10 mg/kg i.v., rats
[12] = iv, 10 mg/kg, Group 2 (10 mg/kg KTZ oral, 50 min before), CP 10 mg/kg i.v., rats
[13] = iv, 10 mg/kg, Group 3 (20 mg/kg KTZ oral, 50 min before), CP 10 mg/kg i.v., rats
[14] = iv, 10 mg/kg, Group 4 (40 mg/kg KTZ oral, 50 min before), CP 10 mg/kg i.v., rats

O=P1(N(CCCl)CCCl)NCCCO1 (stereo not drawn) [CP, Cyclophosphamide]
Short term stability, Measured ([1]; nominal 20 ng/ml): 20.57 ± 0.81 ng/mL
Short term stability, RE ([1]; nominal 20 ng/ml): 2.85%
Short term stability, Measured ([1]; nominal 80 ng/ml): 84.49 ± 2.05 ng/mL
Short term stability, RE ([1]; nominal 80 ng/ml): 5.61%
Short term stability, Measured ([1]; nominal 500 ng/ml): 525.40 ± 73.09 ng/mL
Short term stability, RE ([1]; nominal 500 ng/ml): 5.08%
stability throughout the whole manipulation and storage processes [1]: stable
Long term stability, Measured ([1]; nominal 20 ng/ml): 18.79 ± 0.42 ng/mL
Long term stability, RE ([1]; nominal 20 ng/ml): −6.05%
Long term stability, Measured ([1]; nominal 80 ng/ml): 81.16 ± 2.40 ng/mL
Long term stability, RE ([1]; nominal 80 ng/ml): 1.45%
Long term stability, Measured ([1]; nominal 500 ng/ml): 509.89 ± 68.17 ng/mL
Long term stability, RE ([1]; nominal 500 ng/ml): 1.98%
Three freeze−thaw cycles, Measured ([1]; nominal 20 ng/ml): 18.68 ± 0.20 ng/mL
Three freeze−thaw cycles, RE ([1]; nominal 20 ng/ml): −6.60%
Three freeze−thaw cycles, Measured ([1]; nominal 80 ng/ml): 78.39 ± 1.43 ng/mL
Three freeze−thaw cycles, RE ([1]; nominal 80 ng/ml): −2.01%
Three freeze−thaw cycles, Measured ([1]; nominal 500 ng/ml): 490.26 ± 78.18 ng/mL
Three freeze−thaw cycles, RE ([1]; nominal 500 ng/ml): −1.95%
share of the total CP bioactivation [2]: 12%
part of CP dechloroethylated to DECP and CAA [3]: about 10%
share of the total CP bioactivation [4]: approximately 45%
Km [5]: 160 µM
AUC(0-t) ([6]; iv, 10 mg/kg, AUC0→t, Group 2 (10 mg/kg KTZ oral, 50 min before), CP 10 mg/kg i.v., rats): 21100 ng·h/mL
AUC(0-t) ([6]; iv, 10 mg/kg, AUC0→t, Group 3 (20 mg/kg KTZ oral, 50 min before), CP 10 mg/kg i.v., rats): 28700 ng·h/mL
AUC(0-t) ([6]; iv, 10 mg/kg, AUC0→t, Group 4 (40 mg/kg KTZ oral, 50 min before), CP 10 mg/kg i.v., rats): 38200 ng·h/mL
AUC(0-inf) [6, 11]: 15500 ng·h/mL
AUC(0-inf) [6, 12]: 21900 ng·h/mL
AUC(0-inf) [6, 13]: 29600 ng·h/mL
AUC(0-inf) [6, 14]: 39000 ng·h/mL
Cmax ([6]; iv, 10 mg/kg, Cmax, Group 1 (0 mg/kg KTZ), CP 10 mg/kg i.v., rats): 9420 ng/mL
Cmax ([6]; iv, 10 mg/kg, Cmax, Group 2 (10 mg/kg KTZ oral, 50 min before), CP 10 mg/kg i.v., rats): 10400 ng/mL
Cmax ([6]; iv, 10 mg/kg, Cmax, Group 3 (20 mg/kg KTZ oral, 50 min before), CP 10 mg/kg i.v., rats): 11400 ng/mL
Cmax ([6]; iv, 10 mg/kg, Cmax, Group 4 (40 mg/kg KTZ oral, 50 min before), CP 10 mg/kg i.v., rats): 9600 ng/mL
MRT last ([6]; iv, 10 mg/kg, MRT0–t, Group 1 (0 mg/kg KTZ), CP 10 mg/kg i.v., rats): 1.7 ± 0.167 h
MRT last ([6]; iv, 10 mg/kg, MRT0–t, Group 2 (10 mg/kg KTZ oral, 50 min before), CP 10 mg/kg i.v., rats): 1.72 ± 0.357 h
MRT last ([6]; iv, 10 mg/kg, MRT0–t, Group 3 (20 mg/kg KTZ oral, 50 min before), CP 10 mg/kg i.v., rats): 2.04 ± 0.293 h
MRT last ([6]; iv, 10 mg/kg, MRT0–t, Group 4 (40 mg/kg KTZ oral, 50 min before), CP 10 mg/kg i.v., rats): 2.65 ± 0.482 h
MRT inf [6, 11]: 1.9 ± 0.345 h
MRT inf [6, 12]: 1.86 ± 0.6 h
MRT inf [6, 13]: 2.12 ± 0.361 h
MRT inf [6, 14]: 2.67 ± 0.505 h
Tmax ([6]; iv, 10 mg/kg, Tmax, Group 1 (0 mg/kg KTZ), CP 10 mg/kg i.v., rats): 0.194 ± 0.086 h
Tmax ([6]; iv, 10 mg/kg, Tmax, Group 2 (10 mg/kg KTZ oral, 50 min before), CP 10 mg/kg i.v., rats): 0.194 ± 0.086 h
Tmax ([6]; iv, 10 mg/kg, Tmax, Group 3 (20 mg/kg KTZ oral, 50 min before), CP 10 mg/kg i.v., rats): 0.139 ± 0.086 h
Tmax ([6]; iv, 10 mg/kg, Tmax, Group 4 (40 mg/kg KTZ oral, 50 min before), CP 10 mg/kg i.v., rats): 0.347 ± 0.327 h
share of the total CP bioactivation [7]: 25%

CC(=O)N1CCN(c2ccc(OCC3COC(Cn4ccnc4)(c4ccc(Cl)cc4Cl)O3)cc2)CC1 (stereo not drawn) [KTZ, ketoconazole]
Short term stability, Measured ([1]; nominal 10 ng/ml): 9.97 ± 0.23 ng/mL
Short term stability, RE ([1]; nominal 10 ng/ml): −0.30%
Short term stability, Measured ([1]; nominal 40 ng/ml): 42.23 ± 0.76 ng/mL
Short term stability, Measured ([1]; nominal 250 ng/ml): 264.51 ± 38.66 ng/mL
Short term stability, RE ([1]; nominal 250 ng/ml): 5.80%
stability throughout the whole manipulation and storage processes [1]: stable
Long term stability, Measured ([1]; nominal 10 ng/ml): 9.55 ± 0.07 ng/mL
Long term stability, RE ([1]; nominal 10 ng/ml): −4.50%
Long term stability, Measured ([1]; nominal 40 ng/ml): 40.04 ± 0.57 ng/mL
Long term stability, RE ([1]; nominal 40 ng/ml): 0.10%
Long term stability, Measured ([1]; nominal 250 ng/ml): 259.01 ± 37.39 ng/mL
Long term stability, RE ([1]; nominal 250 ng/ml): 3.64%
Three freeze−thaw cycles, Measured ([1]; nominal 10 ng/ml): 9.57 ± 0.23 ng/mL
Three freeze−thaw cycles, RE ([1]; nominal 10 ng/ml): −4.30%
Three freeze−thaw cycles, Measured ([1]; nominal 40 ng/ml): 39.46 ± 0.44 ng/mL
Three freeze−thaw cycles, RE ([1]; nominal 40 ng/ml): −1.35%
Three freeze−thaw cycles, Measured ([1]; nominal 250 ng/ml): 254.65 ± 38.96 ng/mL
Three freeze−thaw cycles, RE ([1]; nominal 250 ng/ml): 1.86%
IC50 [8]: 618 nM
AUC(0-t) ([6]; po, 20 mg/kg): 4730 ng·h/mL
Cmax ([6]; po, 20 mg/kg): 2050 ng/mL
MRT last ([6]; po, 20 mg/kg): 1.86 ± 0.193 h
Tmax ([6]; po, 20 mg/kg): 0.514 ± 0.399 h
toxicity (physiological aspects, data not shown) [9]: no obvious toxicity

O=CCCl [CAA, chloroacetaldehyde]
exposure level at which dangerous [10]: 45 ppm
